{
  "source": "patent US6955907B1",
  "about": "“Alkaline, protease VapK suitable for laundry detergent, VapK gene, recombinant expression vector, and transformed microorganisms” (priority 1999, dated 2005)",
  "molecules": {"B1": {"name": "VapK: alkaline serine protease of 27 kDa produced by Vibrio metschnikovii KS1, amino acid sequence SEQ ID NO. 1 (protein, listed as Vibrio metschnikovii)", "chain": "MFKKNVNRTVLAGLLLPTSISLAIASQLKDQEVPSFTPSVAVENHQTEQRYFVTYVPGATSGPMRMSQNGLTETDFSLQKAADILSTQQVTVINHLESLHTSVVRVTPTQAKQLLDNADVAMIEVDPIRYLFDAEIEPYAQQTPYGIRMVQADQLSDVYAANRKVCVIDSGYLRNHVDLPSAGVTGSTFSGHGSWFTDGNGHGTHVAGTIVALDNNVGVVGVLPSGLVGLHNVKIFNDSGVWTRASDLIQAIQSCQSAGSHVVNMSLGGSQGSVTEQKPMRNFYQQGMLLVAAAGNSGNSGFSYPASYDAVVSVAAVNSSGNVANFSQFNSQVELSAPGVGVLSTGNNGGYLSYSGTSMASPHVAGVAALVWSHFPQCRPERIRQSLSQTALDRGAAGRDNFYGWGIVQARRAYNWLSRNGC"}},
  "key": {"[1]": {"tested_on": "protease VapK", "test": "Effects of inhibitors on the activity of the protease VapK", "type": "biochemical, Vibrio metschnikovii KS1", "protocol": "(§1) The activity of the alkaline protease was determined by the method of Yanagida et al with minor modifications. The reaction mixture was prepared by mixing 100 mM sodium carbonate solution with the supernatant formed after centrifuging the culture broth at 6,000 rpm for 15 minutes. 0.5 ml of the fermentation broth was mixed with 2.5 ml of 1% prewarmed casein solution in 100 mM sodium carbonate buffer (pH 10.5). The resulting mixture was incubated at 37° C. for 10 minutes. The reaction was terminated by adding a solution consisting 0.22 M trichloroacetic acid, 0.22 M sodium acetate and 0.22 M acetic acid. The reaction mixture was placed on ice for 10 minutes followed by centrifugation. 1 ml of the supernatant was mixed with 9 ml of distilled water. The optical density (O.D.) was measured at 280 nm. The result is indicated as unit. One unit of the enzyme is defined as the amount of protein which produces an increase of 0.1 absorbance unit under the assay conditions."}, "[2]": {"tested_on": "protease VapK", "test": "Resistance of the protease VapK to surfactants (N-succinyl-ala-ala-pro-phe-p-nitroanilide substrate)", "type": "biochemical, Vibrio metschnikovii KS1", "details": "for Relative Residual Activity (%): 25° C. for 25 minutes, relative to activity without surfactant", "protocol": "In addition, the resistance of the protease VapK to various surfactants was tested. The enzyme sample was appropriately diluted in distilled water. The diluted solution was mixed with each surfactant in the same ratio. The mixture was reacted at 25° C. for 25 minutes. A substrate solution of 5 mM N-succinyl-ala-ala-pro-phe-p-nitroanilide in 1 M tris-HCl, pH 9.0 was added to the reaction mixture in the ratio of 1 to 10. The reaction mixture was reacted at 25° C. for 30 minutes. The optical density of the reaction mixture was measured at 410 nm to determine the enzymatic activity of the protease VapK."}, "[3]": {"tested_on": "casein", "test": "Alkaline protease activity of culture broth (casein method of Yanagida et al, modified)", "type": "biochemical", "protocol": "as §1\nE. coil HB101 harboring the plasmid pSB1 was cultured in an LB medium. The culture broth was recovered and subjected to electrophoresis. As a result (FIG. 8), the expressed protease VapK was detected at the 27 kDa band. In addition, the proteolytic activity of the enzyme was measured."}, "[4]": {"type": "biochemical", "from_the_text": "It can be seen from the above results that the vapk gene contained in the recombinant plasmid pSB1 was expressed in E. coli HB 101 and the expressed protease VapK was secreted extracellularly. […] (FIG. 9)."}, "[5]": {"details": "inhibitor 1 mM, pre-reacted 20 minutes at 4° C."}, "[6]": {"details": "inhibitor 1 mM, pre-reacted 20 minutes at 20° C."}},
  "note": "“Also recorded” adds a separate entry of the source.",
  "data": [
    {"molecule": "O=S(=O)(F)Cc1ccccc1", "note": "[PMSF, phenylmethanesulfonyl fluoride]", "values": [
      {"measurement": "inhibition of the enzymatic activity of the protease VapK (in words)", "setting": "[1]", "value": "inhibited"},
      {"measurement": "Relative Activity (%)", "setting": "[1]; [5]", "value": 6, "unit": "%"},
      {"measurement": "Relative Activity (%)", "setting": "[1]; [6]", "value": 13, "unit": "%"}
    ]},
    {"molecule": "N[C@@H](CS)C(=O)O", "note": "[L-cysteine]", "values": [
      {"measurement": "Relative Activity (%)", "setting": "[1]; [5]", "value": 99, "unit": "%"},
      {"measurement": "Relative Activity (%)", "setting": "[1]; [6]", "value": 100, "unit": "%"}
    ]},
    {"molecule": "Sodium-α-olefin sulfonate [AOS]", "values": [
      {"measurement": "Relative Residual Activity (%)", "setting": "[2]; surfactant 10000 ppm", "value": ">100", "unit": "%"},
      {"measurement": "Relative Residual Activity (%)", "setting": "[2]; surfactant 15000 ppm", "value": ">70", "unit": "%"}
    ]},
    {"molecule": "O=C(O)CN(CCOCCOCCN(CC(=O)O)CC(=O)O)CC(=O)O", "note": "[EGTA, ethyleneglycol-bis(β-aminoethyl ether)N,N,N′,N′-tetraacetic acid]", "values": [
      {"measurement": "Relative Activity (%)", "setting": "[1]; [5]", "value": 100, "unit": "%"},
      {"measurement": "Relative Activity (%)", "setting": "[1]; [6]", "value": 100, "unit": "%"}
    ]},
    {"molecule": "Polyoxyethylene Alkylether [Polyoxyethylene Alkylether (EO = 15 mol)]", "values": [
      {"measurement": "Relative Residual Activity (%)", "setting": "[2]; surfactant 30000 ppm", "value": ">100", "unit": "%"}
    ]},
    {"molecule": "O=C(O)CN(CCN(CC(=O)O)CC(=O)O)CC(=O)O", "note": "[EDTA, ethylenediamine tetraacetic acid]", "values": [
      {"measurement": "Relative Activity (%)", "setting": "[1]; inhibitor 100 mM, pre-reacted 20 minutes at 4° C.", "value": 86, "unit": "%"},
      {"measurement": "Relative Activity (%)", "setting": "[1]; inhibitor 100 mM, pre-reacted 20 minutes at 20° C.", "value": 100, "unit": "%"}
    ]},
    {"molecule": "CCCCCCCCCCCCOS(=O)(=O)[O-].[Na+]", "note": "[SDS, sodium dodecyl sulfate]", "values": [
      {"measurement": "Relative Residual Activity (%)", "setting": "[2]; surfactant 1000 ppm", "value": ">100", "unit": "%"},
      {"measurement": "Relative Residual Activity (%)", "setting": "[2]; surfactant 1500 ppm", "value": "<70", "unit": "%"}
    ]},
    {"molecule": "B1", "values": [
      {"measurement": "Activity (proteolytic activity of expressed Vap K)", "setting": "[3]; Strain E. coli HB 101 harboring plasmid pSB1, LB medium culture broth", "value": 30.3, "unit": "unit/ml"},
      {"measurement": "Activity (proteolytic activity of expressed Vap K)", "setting": "[3]; Strain Vibrio metschnikovii KS1, culture broth", "value": 956.2, "unit": "unit/ml"},
      {"measurement": "influence of temperature on stability", "setting": "[4]", "value": "influenced slightly"},
      {"measurement": "pH of optimum activity", "setting": "[4]", "value": 10.5},
      {"measurement": "stability over pH", "setting": "[4]", "value": "stability in the entire pH range"},
      {"measurement": "temperature of optimum activity", "setting": "[4]", "value": 50, "unit": "°C"},
      {"measurement": "resistance / stability to surfactants (in words)", "setting": "[2]; surfactants such as LAS, SDS, AOS, polyoxyethylene alkylether", "value": "very resistant; also recorded: high resistance; also recorded: very stable"}
    ]}
  ]
}
